According to patent publication US8546443B2, “Benzylic oxindole pyrimidines” (Boehringer Ingelheim International GmbH, priority 2010, dated 2013):

molecular target: T1, cytoplasmic kinase domain of human IGF-1R (IGF-1R-GST) (Homo sapiens, UniProt P08069); assay: Insulin-like growth factor-1 receptor (IGF-1R) kinase assay (DELFIA); format: biochemical; settings: IGF-1R-GST kinase activity, read-out: IGF1R IC50
T1 construct: cytoplasmic kinase domain of human IGF-1R (amino acids 964-1370); GST (glutathione-S-transferase); made in house; host or cells: High Five insect cells (Invitrogen)
Procedure: Insulin-Like Growth Factor-1 Receptor (IGF-1R)-Kinase Assay
The kinase activity is measured by DELFIA® assay (dissociation-enhanced lanthanide fluorescence immunoassay, Perkin Elmer). […] Enzyme activity is measured in the presence of substances and a control substance. Poly-glutamate-tyrosine peptide (pEY, Sigma Aldrich) and biotinylated pEY (bio-pEY) are used as reaction substrates.
After 40 min at RT the reactions are stopped with 50 μL of stop solution (250 mM EDTA, 20 mM HEPES pH 7.4). 90 μL from each reaction are transferred onto streptavidin-coated 96-well plates. After 120 min incubation at RT the plates are washed three times with 200 μL phosphate-buffered saline (PBS) per well. The plates are incubated for 60 min with 100 μL of europium-coupled antibody against phospho-tyrosine (diluted 1/2000 in Perkin Elmer DELFIA assay buffer) per well. The plates are washed three times with 200 μL per well of DELFIA washing buffer. 100 μL DELFIA Enhancement Solution (Perkin Elmer) is added to each well, and the plates are incubated for 10 min. The fluorescence signal is measured with a Wallac Victor TRF Reader. IC50 values for the inhibition of the IGF-1R-kinase activity are calculated using the programmes Fifty (Version 2) and GraphPad (Version 3.0).

T1 sequence (P08069 964-1367 limits assumed): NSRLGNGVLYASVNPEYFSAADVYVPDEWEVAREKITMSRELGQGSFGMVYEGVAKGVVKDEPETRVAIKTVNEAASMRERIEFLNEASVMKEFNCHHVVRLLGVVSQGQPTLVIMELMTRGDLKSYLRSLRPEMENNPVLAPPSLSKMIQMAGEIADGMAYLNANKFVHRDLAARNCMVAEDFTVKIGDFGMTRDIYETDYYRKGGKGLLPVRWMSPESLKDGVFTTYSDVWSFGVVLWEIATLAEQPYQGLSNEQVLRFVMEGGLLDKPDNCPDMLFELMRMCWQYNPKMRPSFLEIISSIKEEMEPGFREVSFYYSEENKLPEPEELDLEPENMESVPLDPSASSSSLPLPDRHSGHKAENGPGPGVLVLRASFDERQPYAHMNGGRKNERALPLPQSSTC

First: COc1cc(N2CCN(C(=O)CCN3CCCC3)CC2)ccc1Nc1ncc(Cl)c(NCc2cccc3c2C(C)(C)C(=O)N3)n1 [Example I-59]
Second: COc1cc(N2CCN(C(=O)CCCN(C)C)CC2)ccc1Nc1ncc(Cl)c(NCc2cccc3c2C(C)(C)C(=O)N3)n1 [Example I-64]
The IC50 of the first is 2-fold higher: 4 nM for the first, 2 nM for the second.

Going from `COc1cc(N2CCC(N3CCC(O)CC3)CC2)ccc1Nc1ncc(C(F)(F)F)c(NCc2cccc3c2C(C)(C)C(=O)N3)n1` [Example I-177] to `COc1cc(N2CCC(N3CCOCC3)CC2)ccc1Nc1ncc(C(F)(F)F)c(NCc2cccc3c2C(C)(C)C(=O)N3)n1` [Example I-171], the IC50 falls from 1 nM to 0.38 nM (2.6-fold).

`COCCNC1CCN(c2ccc(Nc3ncc(C(F)(F)F)c(NCc4cccc5c4C(C)(C)C(=O)N5)n3)c(OC)c2)CC1` [Example I-167] and `COCCCN(C)C1CCN(c2ccc(Nc3ncc(C(F)(F)F)c(NCc4cccc5c4C(C)(C)C(=O)N5)n3)c(OC)c2)CC1` [Example I-168] are the same in IC50: 0.2 nM for the first, 0.2 nM for the second.

Going from `COc1cc(N2CCC(NCCN(C)C)CC2)ccc1Nc1ncc(C(F)(F)F)c(NCc2cccc3c2CC(=O)N3)n1` [Example I-194] to `COc1cc(N2CCC(N(C)CCN(C)C)CC2)ccc1Nc1ncc(C(F)(F)F)c(NCc2cccc3c2CC(=O)N3)n1` [Example I-178], the IC50 falls from 7 nM to 2 nM (3.5-fold).

Going from `COc1cc(N2CCN(C3CCC3)CC2)ccc1Nc1ncc(Cl)c(NCc2cccc3c2C(C)(C)C(=O)N3)n1` [Example I-96] to `COc1cc(N2CCN(CC3CC3)CC2)ccc1Nc1ncc(Cl)c(NCc2cccc3c2C(C)(C)C(=O)N3)n1` [Example I-101], the IC50 falls from 3 nM to 2 nM (1.5-fold).

First: CNC(=O)C1CCN(c2ccc(Nc3ncc(C(F)(F)F)c(NCc4cccc5c4C(C)(C)C(=O)N5)n3)c(OC)c2)CC1 [Example I-227]
Second: COc1cc(N2CCC(N(C)C)CC2)ccc1Nc1ncc(C(F)(F)F)c(NCc2cccc3c2C(C)(C)C(=O)N3)n1 [Example I-181]
The IC50 of the first is 2.5-fold higher: 5 nM for the first, 2 nM for the second.

`COc1cc(N2CCC(N3CCC(OC)CC3)CC2)ccc1Nc1ncc(C(F)(F)F)c(NCc2cccc3c2CC(=O)N3)n1` [Example I-192] and `COc1cc(N2CCC(N3CCC(O)CC3)CC2)ccc1Nc1ncc(C(F)(F)F)c(NCc2cccc3c2CC(=O)N3)n1` [Example I-188] are within 1.5-fold of each other in IC50: 6 nM for the first, 5 nM for the second.

`COc1cc(N2CCC(N(C)CCCN(C)C)CC2)ccc1Nc1ncc(C(F)(F)F)c(NCc2cccc3c2CC(=O)N3)n1` [Example I-185] and `COc1cc(N2CCC(N(C)CCO)CC2)ccc1Nc1ncc(C(F)(F)F)c(NCc2cccc3c2CC(=O)N3)n1` [Example I-186] are the same in IC50: 4 nM for the first, 4 nM for the second.

Compared with `CCOc1cc(N2CCN(C(C)=O)CC2)ccc1Nc1ncc(C(F)(F)F)c(NCc2cccc3c2C(C)(C)C(=O)N3)n1` [Example I-79], `CCOc1cc(N2CCN(CC)CC2)ccc1Nc1ncc(C(F)(F)F)c(NCc2cccc3c2C(C)(C)C(=O)N3)n1` [Example I-144] is 4.9-fold lower in IC50: 4 nM for the first, 0.81 nM for the second.

Going from `COc1cc(N2CCC(N3CCN(C)CC3)CC2)ccc1Nc1ncc(C(F)(F)F)c(NCc2cccc3c2CC(=O)N3)n1` [Example I-202] to `COc1cc(N2CCC(N3CCN(C4CC4)CC3)CC2)ccc1Nc1ncc(C(F)(F)F)c(NCc2cccc3c2CC(=O)N3)n1` [Example I-190], the IC50 falls from 24 nM to 6 nM (4-fold).

`COc1cc(N2CCN(C3CCN(C)CC3)[C@H](C)C2)ccc1Nc1ncc(C(F)(F)F)c(NCc2cccc3c2C(C)(C)C(=O)N3)n1` [Example I-132] and `COc1cc(N2CCN(C3CCC3)[C@H](C)C2)ccc1Nc1ncc(C(F)(F)F)c(NCc2cccc3c2C(C)(C)C(=O)N3)n1` [Example I-109] are within 1.5-fold of each other in IC50: 0.6 nM for the first, 0.87 nM for the second.

Going from `COc1cc(N2CC3CC2CN3C2CCOCC2)ccc1Nc1ncc(C(F)(F)F)c(NCc2cccc3c2C(C)(C)C(=O)N3)n1` (stereo not shown) [Example I-150] to `COc1cc(N2CC3CC2CN3C2CCN(C)CC2)ccc1Nc1ncc(C(F)(F)F)c(NCc2cccc3c2C(C)(C)C(=O)N3)n1` (stereo not shown) [Example I-147], the IC50 rises from 3 nM to 5 nM (1.7-fold).

`CCOc1cc(N2CCN(CC)CC2)ccc1Nc1ncc(C(F)(F)F)c(NCc2cccc3c2CC(=O)N3)n1` [Example I-140] and `CCOc1cc(N2CCN(C(C)C)CC2)ccc1Nc1ncc(C(F)(F)F)c(NCc2cccc3c2CC(=O)N3)n1` [Example I-139] are within 1.5-fold of each other in IC50: 11 nM for the first, 8 nM for the second.

Going from `COc1cc(N2CCC(N3CCN(C4CCN(C)CC4)CC3)CC2)ccc1Nc1ncc(C(F)(F)F)c(NCc2cccc3c2CC(=O)N3)n1` [Example I-193] to `COc1cc(N2CCN(C3CCN(CCO)CC3)CC2)ccc1Nc1ncc(C(F)(F)F)c(NCc2cccc3c2CC(=O)N3)n1` [Example I-121], the IC50 rises from 7 nM to 16 nM (2.3-fold). The first is the more potent here.

`COc1cc(N2CCNCC2)ccc1Nc1ncc(Cl)c(NCc2cccc3c2C(C)(C)C(=O)N3)n1` [Example I-11] and `CCN1CCN(c2ccc(Nc3ncc(Cl)c(NCc4cccc5c4C(C)(C)C(=O)N5)n3)c(OC)c2)CC1` [Example I-99] are the same in IC50: 2 nM for the first, 2 nM for the second.

Going from `CNCC(=O)N1CCC(c2ccc(Nc3ncc(Cl)c(NCc4cccc5c4C(C)(C)C(=O)N5)n3)cc2)CC1` [Example I-51] to `CN(C)CC(=O)N1CCC(c2ccc(Nc3ncc(Cl)c(NCc4cccc5c4C(C)(C)C(=O)N5)n3)cc2)CC1` [Example I-43], the IC50 rises from 2 nM to 7 nM (3.5-fold). The first is the more potent here.

First: COc1cc(C(=O)NC2CCN(C)CC2)ccc1Nc1ncc(C(F)(F)F)c(NCc2cccc3c2C(C)(C)C(=O)N3C)n1 [Example I-231]
Second: COc1cc(N2CCN(C)CC2)ccc1Nc1ncc(C(F)(F)F)c(NCc2cccc3c2C(C)(C)C(=O)N3C)n1 [Example I-127]
The IC50 of the first is 5-fold higher: 15 nM for the first, 3 nM for the second. The second is the more potent here.

`COc1cc(N2CCN(C(C)C)CC2)ccc1Nc1ncc(Cl)c(NCc2cccc3c2C(C)(C)C(=O)N3)n1` [Example I-98] and `COc1cc(N2CCN(C(C)C)CC2)ccc1Nc1ncc(C(F)(F)F)c(NCc2cccc3c2C(C)(C)C(=O)N3)n1` [Example I-136] are the same in IC50: 2 nM for the first, 2 nM for the second.

`COc1cc(N2CCC(N(C)CCO)CC2)ccc1Nc1ncc(C(F)(F)F)c(NCc2cccc3c2C(C)(C)C(=O)N3)n1` [Example I-169] and `COc1cc(N2CCN(CC3CC3)[C@H](C)C2)ccc1Nc1ncc(C(F)(F)F)c(NCc2cccc3c2C(C)(C)C(=O)N3)n1` [Example I-131] are within 1.5-fold of each other in IC50: 0.26 nM for the first, 0.33 nM for the second.

`COc1cc(N2CCN(Cc3ccco3)CC2)ccc1Nc1ncc(C(F)(F)F)c(NCc2cccc3c2C(C)(C)C(=O)N3)n1` [Example I-164] and `COc1cc(N2CCN(C(=O)N(C)C)CC2)ccc1Nc1ncc(C(F)(F)F)c(NCc2cccc3c2C(C)(C)C(=O)N3)n1` [Example I-76] are within 1.5-fold of each other in IC50: 14 nM for the first, 11 nM for the second.

Going from `COc1cc(N2CC3CC2CN3C)ccc1Nc1ncc(C(F)(F)F)c(NCc2cccc3c2C(C)(C)C(=O)N3)n1` (stereo not shown) [Example I-151] to `COc1cc(N2CCN(C(C)C)[C@H](C)C2)ccc1Nc1ncc(C(F)(F)F)c(NCc2cccc3c2C(C)(C)C(=O)N3)n1` [Example I-106], the IC50 falls from 2 nM to 0.08 nM (25-fold).

Going from `COc1cc(N2CCN(CCO)CC2)ccc1Nc1ncc(C(F)(F)F)c(NCc2cccc3c2CC(=O)N3)n1` [Example I-223] to `COc1cc(N2CCN(C(=O)CN(C)C)CC2)ccc1Nc1ncc(C(F)(F)F)c(NCc2cccc3c2CC(=O)N3)n1` [Example I-91], the IC50 falls from 18 nM to 6 nM (3-fold). The second is the more potent here.

Going from `CC1(C)C(=O)Nc2cccc(CNc3nc(Nc4ccc(C5CCN(C(=O)C6CNC6)CC5)cc4)ncc3Cl)c21` [Example I-52] to `CC1(C)C(=O)Nc2cccc(CNc3nc(Nc4ccc(C5CCN(CCO)CC5)cc4)ncc3Cl)c21` [Example I-205], the IC50 falls from 7 nM to 2 nM (3.5-fold).

Compared with `COCC(=O)N1CCN(c2ccc(Nc3ncc(C(F)(F)F)c(NCc4cccc5c4C(C)(C)C(=O)N5)n3)c(OC)c2)CC1` [Example I-83], `COc1cc(N2CCN(C(=O)CN(C)C)CC2)ccc1Nc1ncc(C(F)(F)F)c(NCc2cccc3c2C(C)(C)C(=O)N3)n1` [Example I-84] is 17-fold lower in IC50: 5 nM for the first, 0.3 nM for the second. The second is the more potent here.

Compared with `COc1cc(N2CCN(C3CCN(C)CC3)CC2)ccc1Nc1ncc(C(F)(F)F)c(NCc2cccc3c2C(C)(C)C(=O)N3)n1` [Example I-135], `COc1cc(N2CCN(C3CCN(C(C)=O)CC3)CC2)ccc1Nc1ncc(C(F)(F)F)c(NCc2cccc3c2C(C)(C)C(=O)N3)n1` [Example I-158] is 3.5-fold higher in IC50: 0.57 nM for the first, 2 nM for the second.

Going from `CC1(C)C(=O)Nc2cccc(CNc3nc(Nc4ccc(C5CCN(CCS(C)(=O)=O)CC5)cc4)ncc3Cl)c21` [Example I-207] to `CC(C)N1CCC(c2ccc(Nc3ncc(C(F)(F)F)c(NCc4cccc5c4C(C)(C)C(=O)N5)n3)cc2)CC1` [Example I-134], the IC50 falls from 10 nM to 1 nM (10-fold).

First: COc1cc(N2CCC(C(=O)NC3CCN(C)CC3)CC2)ccc1Nc1ncc(C(F)(F)F)c(NCc2cccc3c2C(C)(C)C(=O)N3)n1 [Example I-226]
Second: COc1cc(N2CCN(C(=O)C3CCN(C)CC3)CC2)ccc1Nc1ncc(C(F)(F)F)c(NCc2cccc3c2C(C)(C)C(=O)N3)n1 [Example I-87]
The IC50 of the first is 1.5-fold lower: 2 nM for the first, 3 nM for the second.

Compared with `COc1cc(N2CCN(C3CCOCC3)CC2)ccc1Nc1ncc(C(F)(F)F)c(NCc2cccc3c2CC(=O)N3)n1` [Example I-118], `COc1cc(N2CCN(C(=O)CCN(C)C)CC2)ccc1Nc1ncc(C(F)(F)F)c(NCc2cccc3c2C(C)(C)C(=O)N3)n1` [Example I-89] is 61-fold lower in IC50: 11 nM for the first, 0.18 nM for the second.

Going from `COc1cc(N2CCNCC2)ccc1Nc1ncc(C(F)(F)F)c(NCc2cccc3c2C(C)(C)C(=O)N3C)n1` [Example I-30] to `COc1cc(C2CCN(C(C)C)CC2)ccc1Nc1ncc(C(F)(F)F)c(NCc2cccc3c2C(C)(C)C(=O)N3)n1` [Example I-159], the IC50 falls from 3 nM to 0.41 nM (7.3-fold). The second is the more potent here.
